# Read-outs that look alike come from different tables or passages of the source.
# How the values were obtained:
# [1] = test system: formation of advanced glycation end-product (AGE); experiment: Inhibition of formation of AGE (BSA with fructose and glucose, fluorescence); format: biochemical; details: mean ± SD, n = 3; for IC50: isolated compounds
# Protocol: The inhibitory activity of the formation of AGE was measured with a spectrophotometric method developed previously, with slight modifications. Briefly, the assay mixture contained 50 mM phosphate buffer (pH 7.4) with 0.02% sodium azide, 0.4 M fructose and glucose, bovine serum albumin (10 mg/mL), and the sample. Next, the assay mixture was incubated at 60 °C for 2 days. After incubation, 200 μL of the reaction product was measured at excitation and emission wavelengths of 350 and 450 nm, respectively. All samples and positive control (aminoguanidine) were dissolved in 10% analytical-grade DMSO at five different final concentrations. All reactions were measured in black 96-well microplates and tested in triplicate. The percentage of inhibition (%) of the formation of AGE was estimated using the following formula: {(Ac − As)/Ac} × 100, where Ac is the fluorescence of the control and As is the fluorescence of the sample. Inhibition of the formation of AGE of each sample was presented in terms of IC50, as calculated from the log dose-inhibition curve.
# [2] = molecular target: T1, acetylcholinesterase (AChE) (Electrophorus electricus, UniProt O42275); experiment: biochemical; format: biochemical; details: mean ± SD, n = 3
# T1 construct: purchased Sigma-Aldrich Co. (St. Louis, MO, USA)
# Text: (§1) Methanol (MeOH), ethanol (EtOH), n-hexane (Hx), dichloromethane (DCM), ethyl acetate (EA), n-butanol (BuOH) (Samchun Pure Chemical, Pyeongtaek, Gyeonggi, Korea) and distilled water were used for extraction, fractionation, and open column chromatography. Open column chromatography used silica gel 60 (40–63 μm; Merck, Darmstadt, Germany), Sephadex LH-20 (25–100 μm; Pharmacia, Stockholm, Sweden), MCI CHP 20P (Supelco, St. Louis, MO, USA), and octadecyl-silica (ODS) gel (400–500 mesh; Waters, Milford, MA, USA). Methanol-d4 (CD3OD) and dimethyl sulfoxide-d6 (DMSO-d6) were used for NMR analysis. The molecular weight was determined by ultra-high-performance liquid chromatography (UPLC) and high-resolution mass spectrometry (HRMS) by connecting an electrospray ionization hybrid linear trap-quadruple-Orbitrap MS system (ESI/LTQ-Orbitrap) to an Ultimate 3000 rapid separation liquid chromatography (RSLC) system (Thermo, Darmstadt, Germany). A TECAN Sunrise microplate reader and Infinite F200 pro (Männedorf, Zürich, Switzerland) were used for absorbance and fluorescence, respectively. High performance liquid chromatography (HPLC) was performed using Waters 2695 system pump and Waters 996 Photodiode array detector (Waters, Milford, MA, USA); data was extracted with Empower Pro 2.0 software. The separation column was a Waters Kromasil C18 column (4.6 × 250 mm, 5 μm). HPLC-grade solvents (e.g., acetonitrile and distilled water (H2O)) were purchased from J. T. Baker® (Phillipsburg, PA, USA). HPLC-grade acetic acid was purchased from Fisher Chemical (Janssen Pharmaceuticalaan, Geel, Belgium). In addition, analytical-grade dimethyl sulfoxide (DMSO), used as a solvent in the bioassay, was purchased from DEAJUNG Chemical (Siheung, Gyeonggi, Korea). Reagents and solvents, including AChE from electric eel, acetylthiocholine iodide (ATCh), BChE from equine serum, S-butyrylthiocholine iodide (BTCh), 5,5′- dithiobis [2-nitrobenzoic acid] […] The BACE1 (β-secretase) FRET assay kit was purchased from Pan Vera Co. (Madison, WI, USA).
# (§2) The inhibitory activities of the test samples against ChE (AChE and BChE) were evaluated using the spectrophotometric method developed in a previous study. ATCh and BTCh were used as substrates to measure the inhibitory activities of AChE and BChE, respectively. The assay mixture contained 0.1 M sodium phosphate buffer (pH 7.8), 0.3 U/mL AChE or BChE, 0.5 mM DTNB, 0.6 mM ATCh or BTCh, and the tested sample solution that were mixed and incubated for 15 min at room temperature. […] Reactions started on addition of 10 μL of DTNB and 10 μL of either ATCh or BTCh. The ChE inhibitory activity was monitored based on the formation of the yellow 5-thio-2-nitrobenzoate anion at 412 nm for 15 min that was due to the reaction of DTNB and thiocholine released from ATCh or BTCh. All reactions were measured in 96-well microplates and tested in triplicate. The percentage of inhibition (%) was estimated using the following formula: {(Ac − As)/Ac} × 100, where Ac is the enzyme activity without the test sample and As is the enzyme activity with the test sample.
# [3] = molecular target: T2, β-site amyloid precursor protein cleaving enzyme 1 (BACE1) (Homo sapiens, UniProt P56817); experiment: BACE1 (β-secretase) FRET enzyme assay; format: biochemical; details: mean ± SD, n = 3
# T2 construct: purchased Pan Vera Co. (Madison, WI, USA)
# Text: as §1
# The BACE1 enzyme assay was performed in accordance with the manufacturer’s recommended protocol, with minor modifications. Briefly, the assay mixture contained 1.0 U/mL of BACE1, 50 mM sodium acetate buffer (pH 4.5), the substrate (750 nM Rh-[…]-Quencher in 50 mM ammonium bicarbonate), and samples. […] The reaction mixture was incubated for 60 min at 25 °C in the dark. Prior to measurement, stop solution (2.5 M sodium acetate) was added to the assay mixture. […] All reactions were measured in black 96-well microplates and tested in triplicate. The percentage of inhibition (%) was obtained using the following formula: [1 − (S60 − S0)/(C60 − C0)] × 100, where C60 is the fluorescence of the control after 60 min of incubation, C0 is the initial fluorescence of the control, S60 is the fluorescence of the tested sample after 60 min of incubation, and S0 is the initial fluorescence of the tested sample. BACE1 inhibitory activity assay of each sample was presented in terms of IC50, as calculated from the log dose inhibition curve.
# [4] = molecular target: T3, butyrylcholinesterase (BChE) (Equus caballus, UniProt P81908); experiment: biochemical; details: isolated compounds, mean ± SD, n = 3
# T3 construct: BChE from equine serum; purchased Sigma-Aldrich Co. (St. Louis, MO, USA); host or cells: equine serum
# Text: as §1, §2
# [5] = test system: neuroinflammation; set-up: method as in PMID 27623545; details: for the treatment of AD; cited from earlier work
# [6] = isolated compounds, read-out: IC50 AChE
# [7] = isolated compounds, read-out: IC50 BACE1
# T2 sequence (P56817 22-501 limits assumed): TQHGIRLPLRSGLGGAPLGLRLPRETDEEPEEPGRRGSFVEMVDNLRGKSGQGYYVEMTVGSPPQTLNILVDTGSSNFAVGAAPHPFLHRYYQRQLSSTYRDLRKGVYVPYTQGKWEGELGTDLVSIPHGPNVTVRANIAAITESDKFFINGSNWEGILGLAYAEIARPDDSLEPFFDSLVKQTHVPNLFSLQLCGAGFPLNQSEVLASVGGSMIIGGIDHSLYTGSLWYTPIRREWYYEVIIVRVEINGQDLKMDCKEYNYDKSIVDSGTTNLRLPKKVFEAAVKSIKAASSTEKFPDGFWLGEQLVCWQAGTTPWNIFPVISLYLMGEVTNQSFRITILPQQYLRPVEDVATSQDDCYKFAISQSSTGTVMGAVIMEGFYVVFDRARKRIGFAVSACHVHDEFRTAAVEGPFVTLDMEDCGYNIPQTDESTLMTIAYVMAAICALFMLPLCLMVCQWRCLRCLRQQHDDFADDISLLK
# T3 sequence (P81908 whole entry): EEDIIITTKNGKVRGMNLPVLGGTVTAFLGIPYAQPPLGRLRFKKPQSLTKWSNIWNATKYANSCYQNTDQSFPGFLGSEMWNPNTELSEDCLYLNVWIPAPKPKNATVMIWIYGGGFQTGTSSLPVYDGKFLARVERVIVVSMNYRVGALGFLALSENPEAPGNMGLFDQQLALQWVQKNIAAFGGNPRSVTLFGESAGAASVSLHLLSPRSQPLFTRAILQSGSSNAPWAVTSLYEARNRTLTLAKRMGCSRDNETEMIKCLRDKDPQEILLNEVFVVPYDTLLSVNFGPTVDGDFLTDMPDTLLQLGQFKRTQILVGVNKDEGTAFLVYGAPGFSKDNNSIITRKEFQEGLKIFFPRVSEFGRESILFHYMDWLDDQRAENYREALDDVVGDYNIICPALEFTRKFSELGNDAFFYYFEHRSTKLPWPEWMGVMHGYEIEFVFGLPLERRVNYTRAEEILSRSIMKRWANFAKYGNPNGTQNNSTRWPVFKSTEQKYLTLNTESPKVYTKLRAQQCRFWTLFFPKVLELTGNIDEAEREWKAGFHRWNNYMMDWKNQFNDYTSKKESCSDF
# T1 sequence (O42275 24-633): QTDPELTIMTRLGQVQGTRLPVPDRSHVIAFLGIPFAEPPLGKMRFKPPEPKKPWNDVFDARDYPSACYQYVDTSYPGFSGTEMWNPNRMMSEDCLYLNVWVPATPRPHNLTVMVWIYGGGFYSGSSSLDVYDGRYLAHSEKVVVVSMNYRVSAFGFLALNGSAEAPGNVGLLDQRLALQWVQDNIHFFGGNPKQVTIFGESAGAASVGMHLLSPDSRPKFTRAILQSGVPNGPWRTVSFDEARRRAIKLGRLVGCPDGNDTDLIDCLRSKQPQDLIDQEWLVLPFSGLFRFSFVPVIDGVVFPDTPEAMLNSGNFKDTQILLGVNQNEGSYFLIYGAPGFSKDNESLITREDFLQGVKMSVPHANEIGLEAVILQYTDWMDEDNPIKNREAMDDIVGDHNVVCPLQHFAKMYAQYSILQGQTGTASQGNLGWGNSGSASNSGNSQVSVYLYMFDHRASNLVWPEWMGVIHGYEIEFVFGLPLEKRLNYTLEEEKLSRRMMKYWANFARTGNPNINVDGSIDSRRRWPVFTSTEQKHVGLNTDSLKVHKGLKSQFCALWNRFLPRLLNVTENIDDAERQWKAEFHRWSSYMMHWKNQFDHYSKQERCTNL
SMILES,"IC50 ([3]; IC50 BACE1, isolated compounds) [µM]","IC50 [2, 6] [µM]",IC50 [1] [µM],IC50 ([4]; read-out: IC50 BChE) [µM],further results
"N=C(N)NN [AMG, aminoguanidine, reference compound]",–,–,–,–,IC50 AGE Formation ([1]; extract and fractions): 131.92 ± 11.24 µg/mL
"COc1ccc2cc3[n+](cc2c1OC)CCc1cc2c(cc1-3)OCO2 [Berberine, berberine, reference compound]",–,–,–,–,"IC50 ([2]; IC50 AChE, extract and fractions): 0.327 µM; IC50 ([2]; IC50 AChE, isolated compounds): 0.31 ± 0.01 µM"
"COC(=O)C1=CO[C@@H](O[C@@H]2O[C@H](CO)[C@@H](O)[C@H](O)[C@H]2O)[C@@H]2C(CO)=C[C@@H](OC(=O)/C=C/c3ccc(O)cc3)[C@H]12 [Compound 1, E-6-O-p-coumaroyl scandoside methyl ester]",63.3 ± 4.56,304 ± 12.2,105 ± 14.5,–,–
"COC(=O)C1=CO[C@@H](O[C@@H]2O[C@H](CO)[C@@H](O)[C@H](O)[C@H]2O)[C@@H]2C(CO)=C[C@@H](OC(=O)/C=C/c3ccc(O)cc3)[C@H]12 [Compound 2, 6-O-p-coumaroyl scandoside methyl ester]",121 ± 14.8,298 ± 22.7,381 ± 42.7,–,–
"COC(=O)C1=CO[C@@H](O[C@@H]2O[C@H](CO)[C@@H](O)[C@H](O)[C@H]2O)[C@@H]2C(CO)=C[C@@H](OC(=O)/C=C/c3ccc(O)c(OC)c3)[C@H]12 [Compound 3, E-6-O-feruloyl scandoside methyl ester]",121 ± 11.9,96.8 ± 5.29,–,116 ± 29.4,–
"COC(=O)C1=CO[C@@H](O[C@@H]2O[C@H](CO)[C@@H](O)[C@H](O)[C@H]2O)[C@@H]2C(CO)=C[C@H](O)[C@H]12 [Compound 4, deacetylasperulosidic acid methyl ester]",–,172 ± 20.6,–,17.6 ± 0.78,"IC50 [3, 7]: > 500 µM"
"CC(=O)OCC1=C[C@@H]2OC(=O)C3=CO[C@@H](O[C@@H]4O[C@H](CO)[C@@H](O)[C@H](O)[C@H]4O)[C@H]1[C@@H]32 [Compound 5, asperuloside]",> 500,–,> 1000,–,"IC50 ([4]; IC50 BChE): > 500 µM; IC50 ([2]; IC50 AChE, isolated compounds): 259 ± 7.48 µM"
"COC(=O)C1=CO[C@@H](O[C@@H]2O[C@H](CO)[C@@H](O)[C@H](O)[C@H]2O)[C@@H]2C(CO)=C[C@H](OC)[C@H]12 [Compound 6, 6-O-Methyldeacetylasperulosidic acid methyl ester]",> 500,81.1 ± 5.58,–,32.2 ± 2.8,–
"COC(=O)C1=CO[C@@H](O[C@@H]2O[C@H](CO)[C@@H](O)[C@H](O)[C@H]2O)[C@@H]2C(CO)=C[C@@H](OC)[C@H]12 [Compound 7, 6-O-Methylscandoside methyl ester]",> 500,–,–,11.6 ± 0.68,IC50 AChE ([2]; isolated compounds): did not inhibit AChE
"COC(=O)C1=CO[C@@H](O[C@@H]2O[C@H](CO)[C@@H](O)[C@H](O)[C@H]2O)[C@@H]2C(CO)=C[C@@H](O)[C@H]12 [Compound 8, scandoside methyl ester]",–,158 ± 13.2,–,16.2 ± 2.05,"IC50 [3, 7]: > 500 µM"
"CC(=O)OCC1=C[C@H](O)[C@@H]2C(C(=O)O)=CO[C@@H](O[C@@H]3O[C@H](CO)[C@@H](O)[C@H](O)[C@H]3O)[C@H]12 [Compound 9, asperulosidic acid]",> 500,–,–,–,"IC50 ([4]; IC50 BChE): 80.3 ± 19.8 µM; IC50 ([2]; IC50 AChE, isolated compounds): 68.3 ± 5.11 µM"
"COc1cc(/C=C/C(=O)OC[C@H]2O[C@@H](O[C@H]3[C@H](Oc4c(-c5ccc(O)c(O)c5)oc5cc(O)cc(O)c5c4=O)O[C@H](CO)[C@@H](O)[C@@H]3O)[C@H](O)[C@@H](O)[C@@H]2O)ccc1O [Compound 10, quercetin-3-O-[2″-O-(6‴-O-E-feruloyl)-β-D-glucopyranosyl]-β-D-glucopyranoside]",4.49 ± 1.86,46.2 ± 1.59,2.71 ± 0.06,13.8 ± 0.37,–
"O=c1c(O[C@@H]2O[C@H](CO)[C@@H](O)[C@H](O)[C@H]2O[C@@H]2O[C@H](CO)[C@@H](O)[C@H](O)[C@H]2O)c(-c2ccc(O)c(O)c2)oc2cc(O)cc(O)c12 [compound β, quercetin-3-O-sophoroside]",–,–,–,–,neuroinflammation inhibitory activity [5]: does not show effective neuroinflammation inhibitory activity

# Reference: publication PMC7764330, “Bioassay-Guided Isolation of Anti-Alzheimer Active Components from the Aerial Parts of Hedyotis diffusa and Simultaneous Analysis for Marker Compounds” (Molecules, 2020)
